According to article PMC10648349, “Aromatic Diboronic Acids as Effective KPC/AmpC Inhibitors” (Molecules, 2023):
Values after ≈ are worked out from the molar mass of the structure shown. Like-named read-outs stand apart in the source and are kept apart here.

Legend:
[1] = tested on: E. coli 77 CMY-2-positive; assay: checkerboard microdilution, antibiotic plus tested agent; assay type: cell-based, Escherichia coli
Summary of the method: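 β-lactam 1–64 mg/L × agent/PBA 4–16 mg/L checkerboard; meropenem vs carbapenemase producers, ceftazidime vs AmpC producer; imipenem, ertapenem added for selected agents. Readout: combination MICs, FICI (average and lowest); off-scale MICs taken as next doubling.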

[2] = tested on: P. aeruginosa MUW 700 cAmpC-positive; assay: combination disc test CDT-AmpC; assay type: cell-based; conditions: Pseudomonas aeruginosa, read-out: Diameter of inhibition zone, CAZ-30 disc with agent
[3] = tested on: S. aureus ATCC 43300 MRSA; assay: direct antimicrobial activity (disc-diffusion, MIC, MBC); assay type: cell-based; conditions: Staphylococcus aureus
Summary of the method: (§1)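 EUCAST/CLSI methods: disc diffusion at 0.4 mg compound/disc, broth MIC, then MBC (bacteria) or MFC (yeast). DMSO vehicle.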

[4] = tested on: S. epidermidis ATCC 12228; assay: as above; assay type: cell-based; conditions: Staphylococcus epidermidis, ATCC12228
Summary of the method: as §1

S. aureus ATCC 6538P = assay: as above; assay type: cell-based; conditions: Staphylococcus aureus, ATCC6538P
Summary of the method: as §1

E. faecalis ATCC 29212 = assay: as above; assay type: cell-based; conditions: Enterococcus faecalis, ATCC29212
Summary of the method: as §1

E. faecium ATCC 6057 = assay: as above; assay type: cell-based; conditions: Enterococcus faecium, ATCC6057
Summary of the method: as §1

[5] = tested on: K. pneumoniae ATCC 700603 ESBL-positive; assay: combination disc test CDT-ESBL; assay type: cell-based; conditions: Klebsiella pneumoniae
C. krusei ATCC 6258 = assay: antifungal activity (disc-diffusion, MIC, MFC); assay type: cell-based, Candida krusei; conditions: Pichia kudriavzevii, ATCC6258; for MIC: fluconazole by Etest
Summary of the method: as §1

[6] = MTT-based viability assay; assay type: cell-based; conditions: human
Summary of the method: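 MRC-5 human fibroblasts grown in MEME with 10% FBS at 37 °C, 5% CO2, tested by MTT with absorbance read at 570 nm. Viability given as percent of untreated control cells, in triplicate.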

[7] = tested on: P. aeruginosa MUW 700 AmpC(+); assay: MIC of tested agent alone, microdilution; assay type: cell-based
Method: (§2) To examine the ability of tested agents to inhibit various carbapenemases and AmpC-enzymes, their synergy with antibiotics against β-lactamase-producing strains was assessed by checkerboard microdilution assay, with slight modification. Checkerboards were prepared in microtiter plates, with seven two-fold dilutions of β-lactams (1–64 mg/L) in the rows and three two-fold dilutions of tested agents and PBA (4–16 mg/L) in the columns. Tested agents’ concentrations were limited to the concentrations at which the newest commercially available BLIs (vaborbactam, relebactam, and avibactam) are used in susceptibility testing. Plates were inoculated and incubated as in the MIC microdilution assay. Parallel, MICs of tested agents and PBA alone were determined by the microdilution assay. Following the incubation, antibiotic MICs in the presence of each agent’s concentration were determined. Moreover, for the first well without growth found in each checkerboard row and column along the growth/non-growth interface, the fractional inhibitory concentration index (FICI) was calculated using the formula below:FICI = [(MIC of antibiotic in combination)/(MIC of antibiotic alone)] + [(MIC of the tested agent in combination)/(MIC of tested agent alone)].

[8] = tested on: K. pneumoniae ATCC BAA-1705 KPC-2(+); assay: MIC of tested agent alone, microdilution; assay type: cell-based
Method: as §2

E. coli 77 CMY-2(+) = assay: MIC of tested agent alone, microdilution; assay type: cell-based
Method: as §2

[9] = tested on: K. pneumoniae 83 KPC-3(+), CTX-M-3(+); assay: MIC of tested agent alone, microdilution; assay type: cell-based
Method: as §2

[10] = tested on: K. pneumoniae 81 KPC-3(+); assay: MIC of tested agent alone, microdilution; assay type: cell-based
Method: as §2

E. coli 76 KPC-2(+) = assay: MIC of tested agent alone, microdilution; assay type: cell-based
Method: as §2

[11] = tested on: P. aeruginosa MUW 700 cAmpC-positive; assay: checkerboard microdilution, antibiotic plus tested agent; assay type: cell-based, Pseudomonas aeruginosa
Method: as §2
For calculations, all off-scale MICs were converted to the next-highest doubling concentration. Subsequently, both the average and the lowest FICI were interpreted. The interpretation was as follows: FICI ≤ 0.5, synergy; 0.5 < FICI ≤ 4, indifference and FICI > 4, antagonism. Primarily, examined combinations consisted of meropenem (Pol-Aura, Morag, Poland) plus tested agents against carbapenemases-producing strains and ceftazidime (Pol-Aura, Morag, Poland) plus tested agents against AmpC-producing strains. For agents that reduced meropenem MIC at least 4-fold for at least two tested strains, similar assays were performed with imipenem (Pol-Aura, Morag, Poland) and ertapenem (Pol-Aura, Morag, Poland).

[12] = tested on: K. pneumoniae ATCC BAA 1705 KPC-2-positive; assay: combination disc test CDT-KPC; assay type: cell-based; conditions: Klebsiella pneumoniae
[13] = 0.4 mg per disc, 9 mm disc (linezolid 0.03 mg, 6 mm disc), - no zone, read-out: Diameter of inhibition zone
[14] = MRC-5 human fibroblasts, 12.5 mg/L, 72 h, read-out: Viability of MRC-5 cells (% of viable cells ± SD)
[15] = MRC-5 human fibroblasts, 25 mg/L, 72 h, read-out: Viability of MRC-5 cells (% of viable cells ± SD)
[16] = MRC-5 human fibroblasts, 50 mg/L, 72 h, read-out: Viability of MRC-5 cells (% of viable cells ± SD)
[17] = Pseudomonas aeruginosa; read-out: MIC of agent alone
[18] = Klebsiella pneumoniae, ATCCBAA1705; read-out: MIC of agent alone
[19] = Escherichia coli; read-out: MIC of agent alone
[20] = Klebsiella pneumoniae; read-out: MIC of agent alone
[21] = Escherichia coli, read-out: MIC of agent alone
[22] = Klebsiella pneumoniae, read-out: MIC of agent alone

OB(O)c1cc(B(O)O)c(F)cc1F [2c]
Average FICI with ceftazidime [1]: 0.21
The lowest FICI with ceftazidime [1]: 0.17
zone of inhibition at 100 µg/disc ([2]; agent 0.1 mg per disc): 20 mm
MIC [3]: 100 µg/mL (≈ 496 µM)
zone of inhibition at 0.4 mg/disc [3, 13]: 19 mm
MIC [4]: 50 µg/mL (≈ 248 µM)
MIC (S. aureus ATCC 6538P): 50 µg/mL (≈ 248 µM)
zone of inhibition at 0.4 mg/disc (S. aureus ATCC 6538P; [13]): 20 mm
MIC (E. faecalis ATCC 29212): 400 µg/mL (≈ 1980 µM)
MIC (E. faecium ATCC 6057): 400 µg/mL (≈ 1980 µM)
zone of inhibition at 100 µg/disc ([5]; ATCC700603, agent 0.1 mg per disc, read-out: Diameter of inhibition zone, CAZ-30 disc with agent): 13 mm
MIC (C. krusei ATCC 6258): > 400 µg/mL
viability at 72 h, 12.5 mg/L [6, 14]: 89.1 ± 0.5%
viability at 72 h, 25 mg/L [6, 15]: 83.6 ± 2.7%
viability at 72 h, 50 mg/L [6, 16]: 63.8 ± 2.5%
MIC [7, 17]: > 400 µg/mL
MIC [8, 18]: 400 µg/mL
MIC (E. coli 77 CMY-2(+); [19]): 200 µg/mL
MIC [9, 20]: 200 µg/mL
MIC [10, 20]: 200 µg/mL
MIC (E. coli 76 KPC-2(+); [19]): 200 µg/mL
Average FICI with ceftazidime [11]: 0.22
Interpretation of the average FICI with ceftazidime [11]: S (FICI ≤ 0.5, synergy)
Interpretation of the lowest FICI with ceftazidime [11]: S (FICI ≤ 0.5, synergy)
The lowest FICI with ceftazidime [11]: 0.15
zone of inhibition at 100 µg/disc ([12]; BAA1705, agent 0.1 mg per disc, read-out: Diameter of inhibition zone, MEM-10 disc with agent): 6 mm

OB(O)c1cc(F)ccc1F [7a, 2,5-difluorophenylboronic acid]
Average FICI with ceftazidime [1]: 0.17
The lowest FICI with ceftazidime [1]: 0.14
zone of inhibition at 30 µg/disc ([2]; agent 0.03 mg per disc): 17 mm
MIC [3]: 100 µg/mL (≈ 633 µM)
MIC [4]: 100 µg/mL (≈ 633 µM)
MIC (S. aureus ATCC 6538P): 50 µg/mL (≈ 317 µM)
MIC (E. faecalis ATCC 29212): 400 µg/mL (≈ 2530 µM)
MIC (E. faecium ATCC 6057): 400 µg/mL (≈ 2530 µM)
zone of inhibition at 30 µg/disc ([5]; ATCC700603, agent 0.03 mg per disc, read-out: Diameter of inhibition zone, CAZ-30 disc with agent): 15 mm
zone of inhibition at 0.4 mg/disc (C. krusei ATCC 6258; 0.4 mg per disc, 9 mm disc (fluconazole 0.025 mg, 6 mm disc), - no zone, read-out: Diameter of inhibition zone): 15 mm
MIC (C. krusei ATCC 6258): 50 µg/mL (≈ 317 µM)
viability at 72 h, 12.5 mg/L [6]: 83 ± 2.9%
viability at 72 h, 25 mg/L [6]: 79.9 ± 3.7%
viability at 72 h, 50 mg/L [6]: 67.3 ± 3.1%
MIC [7, 17]: 400 µg/mL
MIC [8, 18]: 100 µg/mL
MIC (E. coli 77 CMY-2(+); [19]): 100 µg/mL
MIC [9, 20]: 100 µg/mL
MIC [10, 20]: 200 µg/mL
MIC (E. coli 76 KPC-2(+); [19]): 100 µg/mL
Average FICI with ceftazidime [11]: 0.17
Interpretation of the average FICI with ceftazidime [11]: S (FICI ≤ 0.5, synergy)
Interpretation of the lowest FICI with ceftazidime [11]: S (FICI ≤ 0.5, synergy)
The lowest FICI with ceftazidime [11]: 0.10
zone of inhibition at 30 µg/disc ([12]; BAA1705, agent 0.03 mg per disc, read-out: Diameter of inhibition zone, MEM-10 disc with agent): 13 mm

OB(O)c1ccccc1 [PBA, phenylboronic acid, reference compound]
Average FICI with ceftazidime [1]: 0.30
The lowest FICI with ceftazidime [1]: 0.15
zone of inhibition at 300 µg/disc [2]: 24 mm
zone of inhibition at 300 µg/disc ([5]; ATCC700603, read-out: Diameter of inhibition zone, CAZ-30 disc with agent): 14 mm
viability at 72 h, 12.5 mg/L ([6]; 12.5 mg/L, 72 h, read-out: Viability of MRC-5 cells (% of viable cells ± SD)): 81.5 ± 3.7%
viability at 72 h, 25 mg/L ([6]; 25 mg/L, 72 h, read-out: Viability of MRC-5 cells (% of viable cells ± SD)): 79.1 ± 4.4%
viability at 72 h, 50 mg/L ([6]; 50 mg/L, 72 h, read-out: Viability of MRC-5 cells (% of viable cells ± SD)): 58.7 ± 4.3%
MIC ([7]; Pseudomonas aeruginosa, read-out: MIC of agent alone): > 400 µg/mL
MIC ([8]; Klebsiella pneumoniae, ATCCBAA1705, read-out: MIC of agent alone): > 400 µg/mL
MIC (E. coli 77 CMY-2(+); [21]): > 400 µg/mL
MIC [9, 22]: > 400 µg/mL
MIC [10, 22]: > 400 µg/mL
MIC (E. coli 76 KPC-2(+); [21]): > 400 µg/mL
Average FICI with ceftazidime [11]: 0.10
Interpretation of the average FICI with ceftazidime [11]: S (FICI ≤ 0.5, synergy)
Interpretation of the lowest FICI with ceftazidime [11]: S (FICI ≤ 0.5, synergy)
The lowest FICI with ceftazidime [11]: 0.07
zone of inhibition at 300 µg/disc ([12]; BAA1705, read-out: Diameter of inhibition zone, MEM-10 disc with agent): 21 mm

OB(O)c1cccc(F)c1B(O)O [3b]
Average FICI with ceftazidime [1]: 0.43
The lowest FICI with ceftazidime [1]: 0.27
zone of inhibition at 300 µg/disc ([2]; agent 0.3 mg per disc): 22 mm
MIC [3]: > 400 µg/mL
MIC [4]: 400 µg/mL (≈ 2180 µM)
zone of inhibition at 0.4 mg/disc [4, 13]: 21 mm
MIC (S. aureus ATCC 6538P): > 400 µg/mL
MIC (E. faecalis ATCC 29212): > 400 µg/mL
MIC (E. faecium ATCC 6057): > 400 µg/mL
zone of inhibition at 300 µg/disc ([5]; ATCC700603, agent 0.3 mg per disc, read-out: Diameter of inhibition zone, CAZ-30 disc with agent): 16 mm
MIC (C. krusei ATCC 6258): 100 µg/mL (≈ 544 µM)
viability at 72 h, 12.5 mg/L [6, 14]: 98.1 ± 6.1%
viability at 72 h, 25 mg/L [6, 15]: 91.2 ± 13.5%
viability at 72 h, 50 mg/L [6, 16]: 87.1 ± 8%
MIC [7, 17]: > 400 µg/mL
MIC [8, 18]: > 400 µg/mL
MIC (E. coli 77 CMY-2(+); [19]): > 400 µg/mL
MIC [9, 20]: > 400 µg/mL
MIC [10, 20]: > 400 µg/mL
MIC (E. coli 76 KPC-2(+); [19]): > 400 µg/mL
Average FICI with ceftazidime [11]: 0.60
Interpretation of the average FICI with ceftazidime [11]: I (0.5 < FICI ≤ 4, indifference)
Interpretation of the lowest FICI with ceftazidime [11]: S (FICI ≤ 0.5, synergy)
The lowest FICI with ceftazidime [11]: 0.27
zone of inhibition at 300 µg/disc ([12]; BAA1705, agent 0.3 mg per disc, read-out: Diameter of inhibition zone, MEM-10 disc with agent): 14 mm
